Reference: PubChem BioAssay (NCI)
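In this assay, cells in 96-well plates receive the compound at five concentrations for 48 hours. Endpoints are linearly interpolated between the surrounding concentrations. At the TGI there is no net growth.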

What was measured:
Assay in all cases: NCI anticancer screen, dose series, 48 h
T-47D breast = system: T-47D breast
NCI/ADR-RES ovarian = system: NCI/ADR-RES ovarian
HCT-15 colon = system: HCT-15 colon
HCC-2998 colon = system: HCC-2998 colon
IGROV1 ovarian = system: IGROV1 ovarian
MCF7 breast = system: MCF7 breast
NCI-H522 lung = system: NCI-H522 lung
SN12C renal = system: SN12C renal
SF-268 CNS = system: SF-268 CNS
SK-MEL-5 melanoma = system: SK-MEL-5 melanoma
OVCAR-5 ovarian = system: OVCAR-5 ovarian
CCRF-CEM leukemia = system: CCRF-CEM leukemia
U251 CNS = system: U251 CNS
SNB-75 CNS = system: SNB-75 CNS
OVCAR-8 ovarian = system: OVCAR-8 ovarian
NCI-H460 lung = system: NCI-H460 lung
SK-MEL-2 melanoma = system: SK-MEL-2 melanoma
HOP-62 NSCLC = system: HOP-62 NSCLC
UACC-62 melanoma = system: UACC-62 melanoma
K-562 leukemia = system: K-562 leukemia
HCT-116 colon = system: HCT-116 colon
MDA-N = system: MDA-N
RXF 393 renal = system: RXF 393 renal
CAKI-1 renal = system: CAKI-1 renal
MALME-3M melanoma = system: MALME-3M melanoma
HOP-92 NSCLC = system: HOP-92 NSCLC
MOLT-4 leukemia = system: MOLT-4 leukemia
SNB-19 CNS = system: SNB-19 CNS
MDA-MB-435 = system: MDA-MB-435
OVCAR-3 ovarian = system: OVCAR-3 ovarian
ACHN renal = system: ACHN renal
OVCAR-4 ovarian = system: OVCAR-4 ovarian
UO-31 renal = system: UO-31 renal
SW-620 colon = system: SW-620 colon
SF-295 CNS = system: SF-295 CNS
PC-3 prostate = system: PC-3 prostate
COLO 205 colon = system: COLO 205 colon
M14 melanoma = system: M14 melanoma
SF-539 CNS = system: SF-539 CNS
DU-145 prostate = system: DU-145 prostate
UACC-257 melanoma = system: UACC-257 melanoma
NCI-H226 lung = system: NCI-H226 lung
786-0 renal = system: 786-0 renal
HL-60(TB) leukemia = system: HL-60(TB) leukemia
NCI-H23 lung = system: NCI-H23 lung
MDA-MB-231 breast = system: MDA-MB-231 breast
BT-549 breast = system: BT-549 breast
RPMI-8226 leukemia = system: RPMI-8226 leukemia
TK-10 renal = system: TK-10 renal
SK-MEL-28 melanoma = system: SK-MEL-28 melanoma
KM12 colon = system: KM12 colon
LOX IMVI melanoma = system: LOX IMVI melanoma
HT29 colon = system: HT29 colon
EKVX NSCLC = system: EKVX NSCLC
SK-OV-3 ovarian = system: SK-OV-3 ovarian
A549 NSCLC = system: A549 NSCLC
A498 renal = system: A498 renal
HS 578T breast = system: HS 578T breast
SR leukemia = system: SR leukemia

Measured: TGI

O=C1CC(c2ccc(Cl)cc2)C2(C(=O)NC(=O)NC2=O)C(c2ccc(Cl)cc2)C1 (stereo not given)
69 µM: HOP-62 NSCLC
40.6 µM: NCI-H522 lung
43.8 µM: MDA-MB-435
34.8 µM: MDA-MB-231 breast
49 µM: MDA-N
41.3 µM: MOLT-4 leukemia
52.2 µM: RXF 393 renal
51.3 µM: IGROV1 ovarian
65.1 µM: COLO 205 colon
54.9 µM: HOP-92 NSCLC
54 µM: SN12C renal
36.4 µM: NCI-H226 lung
67.4 µM: SW-620 colon
32.6 µM: RPMI-8226 leukemia
38.4 µM: SK-MEL-2 melanoma
47.1 µM: SK-MEL-5 melanoma
37 µM: SK-MEL-28 melanoma
39.8 µM: MALME-3M melanoma
not listed: SK-OV-3 ovarian | A549 NSCLC | A498 renal | HS 578T breast | SR leukemia
> 75 µM: all other assays above

Cc1nc2ncn3c(c-2c1Cc1ccccc1)NC=C(O)N3
67.8 µM: SNB-75 CNS
65.7 µM: IGROV1 ovarian
64 µM: RXF 393 renal
61.3 µM: T-47D breast
not listed: K-562 leukemia | HOP-92 NSCLC | LOX IMVI melanoma | SR leukemia
> 100 µM: all other assays above

COC(OC)C1OC(CO)C(n2cc(F)c(=O)[nH]c2=O)C1O (stereo not given)
28.5 µM: COLO 205 colon
64.4 µM: DU-145 prostate
not listed: SK-MEL-5 melanoma | MALME-3M melanoma | 786-0 renal | SR leukemia
> 100 µM: all other assays above

O=C1CCCCC(=O)Nc2ccccc2N1
not listed: HCC-2998 colon | MCF7 breast | SNB-75 CNS
> 100 µM: all other assays above
